Test results taken from patent US10105357B2, “Indication of antibiotic drugs for preparation of cancer inhibition pharmaceutical composition” (LAUNX BIOMEDICAL CO., LTD., priority 2014, dated 2018).
Read-outs that look alike come from different tables or passages of the source.

Tests used:
cancer cell lines = test: Cell viability analysis (WST-1) on cancer cell lines; format: cell-based, human; details: drug 10 μM, 72 hours, WST-1; Table 3
[1] = system: HI650 (Lung Adenocarcinoma); test: Cell viability analysis, lung cancer HI650; format: cell-based, human; details: Homo sapiens, NCI-H1650, 72 h
[2] = system: A549 (Lung Adenocarcinoma); test: Cell viability analysis, lung cancer A549; format: cell-based, human; details: Homo sapiens, A549, 72 h
[3] = system: AGS (Gastric Adenocarcinoma); test: Cell viability analysis, gastric cancer AGS; format: cell-based, human; details: Homo sapiens, 72 h
[4] = system: MKN-45 (Gastric Adenocarcinoma); test: Cell viability analysis, gastric cancer MKN-45; format: cell-based, human; details: Homo sapiens, MKN-45, 72 h
[5] = system: HepG2 (Hepatocellular Carcinoma); test: Cell viability analysis, hepatic cancer HepG2; format: cell-based, human; details: Homo sapiens, HepG2, 72 h
[6] = system: Hep3B (hepatocellular carcinoma); test: Cell viability analysis, hepatic cancer Hep3B; format: cell-based, human; details: Homo sapiens, 72 h; Hep3B; repeated experiment; read-out: The results of antibiotic drug inhibiting cancer cell lines (cell viability analysis), Hep3B
[7] = system: LoVo (Colorectal Adenocarcinoma); test: Cell viability analysis, colon cancer LoVo; format: cell-based, human; details: Homo sapiens, LoVo, 72 h
[8] = system: A375 (Amelanotic Melanoma); test: Cell viability analysis, skin cancer A375; format: cell-based, human; details: Homo sapiens, A-375, 72 h
[9] = system: BCC (basal cell carcinoma); test: Cell viability analysis, skin cancer BCC; format: cell-based, human; details: Homo sapiens, 72 h; BCC; repeated experiment; read-out: The results of antibiotic drug inhibiting cancer cell lines (cell viability analysis), BCC
[10] = system: HeLa (Cervix Adenocarcinoma); test: Cell viability analysis, cervical cancer HeLa; format: cell-based, human; details: Homo sapiens, HeLa, 72 h, HeLa
[11] = system: C-33A (Cervical carcinoma); test: Cell viability analysis, cervical cancer C-33A; format: cell-based, human; details: Homo sapiens, 72 h; C-33A; repeated experiment; read-out: The results of antibiotic drug inhibiting cancer cell lines (cell viability analysis), C-33A
[12] = system: PC3 (p53−) (Prostate Adenocarcinoma); test: Cell viability analysis, prostate cancer PC3; format: cell-based, human; details: Homo sapiens, 72 h
T24 = test: Cell viability analysis, bladder cancer T24; format: cell-based, human; details: Homo sapiens, T-24, 72 h; T24; repeated experiment; read-out: The results of antibiotic drug inhibiting cancer cell lines (cell viability analysis), T24
[13] = system: MCF7 (Mammary Gland, Adenocarcinoma); test: Cell viability analysis, breast cancer MCF7; format: cell-based, human; details: Homo sapiens, MCF7, 72 h
[14] = system: MDA-MB-231 (Mammary Gland, Adenocarcinoma); test: Cell viability analysis, breast cancer MDA-MB-231; format: cell-based, human; details: Homo sapiens, MDA-MB-231, 72 h; MDA-MB231; repeated experiment; read-out: The results of antibiotic drug inhibiting cancer cell lines (cell viability analysis), MDA-MB231
BxPC-3 = test: Cell viability analysis, pancreatic cancer BxPC-3; format: cell-based, human; details: Homo sapiens, 72 h; BxPC-3; repeated experiment; read-out: The results of antibiotic drug inhibiting cancer cell lines (cell viability analysis), BxPC-3
AsPC-1 = test: Cell viability analysis, pancreatic cancer AsPC-1; format: cell-based, human; details: Homo sapiens, ASPC1, 72 h; AsPC-1; repeated experiment; read-out: The results of antibiotic drug inhibiting cancer cell lines (cell viability analysis), AsPC-1
NIH: OVCAR-3 = test: Cell viability analysis, ovarian cancer NIH: OVCAR-3; format: cell-based, human; details: Homo sapiens, 72 h; NIH-OVCAR-3; repeated experiment; read-out: The results of antibiotic drug inhibiting cancer cell lines (cell viability analysis), NIH-OVCAR-3
TOV-21G = test: Cell viability analysis, ovarian cancer TOV-21G; format: cell-based, human; details: Homo sapiens, TOV21G, 72 h; TOV-21G; repeated experiment; read-out: The results of antibiotic drug inhibiting cancer cell lines (cell viability analysis), TOV-21G
[15] = system: SAS (Tongue squamous cell carcinoma); test: Cell viability analysis, tongue cancer SAS; format: cell-based, human; details: Homo sapiens, 72 h; SAS; repeated experiment; read-out: The results of antibiotic drug inhibiting cancer cell lines (cell viability analysis), SAS
U-2OS = test: Cell viability analysis, osteosarcoma U-2OS; format: cell-based, human; details: Homo sapiens, 72 h; U2OS; repeated experiment; read-out: The results of antibiotic drug inhibiting cancer cell lines (cell viability analysis), U2OS
[16] = system: 786-O (Renal adenocarcinoma); test: Cell viability analysis, renal cancer 786-O; format: cell-based, human; details: Homo sapiens, 786-0, 72 h; 786-O; repeated experiment; read-out: The results of antibiotic drug inhibiting cancer cell lines (cell viability analysis), 786-O
[17] = system: HL-60 (Acute Promyelocytic Leukemia); test: Cell viability analysis, leukemia HL-60; format: cell-based, human; details: Homo sapiens, HL-60, 72 h, drug 10 μM, 72 hours, WST-1, OD450 nm; read-out: cell viability (survival rate), HL-60
[18] = system: HCT116 (p53+) (Colorectal Carcinoma)

CC[C@@H]([C@H](C)O)n1ncn(-c2ccc(N3CCN(c4ccc(OC[C@@H]5CO[C@@](Cn6cncn6)(c6ccc(F)cc6F)C5)cc4)CC3)cc2)c1=O [Posaconazole]
inhibition effect on different cancer cell lines (cancer cell lines): significant inhibition effect | viability at 10 µM ([1]; H1650, repeated experiment, read-out: The results of antibiotic drug inhibiting cancer cell lines (cell viability analysis), H1650): 67.5% | viability at 10 µM ([1]; drug 10 μM, 72 hours, WST-1, OD450 nm, read-out: cell viability (survival rate), H1650): 67% | viability at 10 µM ([2]; A549, repeated experiment, read-out: The results of antibiotic drug inhibiting cancer cell lines (cell viability analysis), A549): 18.1% | viability at 10 µM ([2]; drug 10 μM, 72 hours, WST-1, OD450 nm, read-out: cell viability (survival rate), A549): 42.9% | viability at 10 µM ([3]; AGS, repeated experiment, read-out: The results of antibiotic drug inhibiting cancer cell lines (cell viability analysis), AGS): 65.7% | viability at 10 µM ([3]; drug 10 μM, 72 hours, WST-1, OD450 nm, read-out: cell viability (survival rate), AGS): 42.7% | viability at 10 µM ([4]; MKN-45, repeated experiment, read-out: The results of antibiotic drug inhibiting cancer cell lines (cell viability analysis), MKN-45): 92.8% | viability at 10 µM ([4]; drug 10 μM, 72 hours, WST-1, OD450 nm, read-out: cell viability (survival rate), MKN-45): 52% | viability at 10 µM ([5]; HepG2, repeated experiment, read-out: The results of antibiotic drug inhibiting cancer cell lines (cell viability analysis), HepG2): 57.8% | viability at 10 µM ([5]; drug 10 μM, 72 hours, WST-1, OD450 nm, read-out: cell viability (survival rate), HepG2): 87.2% | viability at 10 µM [6]: 95.2% | viability at 10 µM ([7]; read-out: The results of antibiotic drug inhibiting cancer cell lines (cell viability analysis), LoVo, repeated experiment): 62% | viability at 10 µM ([7]; read-out: cell viability (survival rate), LoVo, drug 10 μM, 72 hours, WST-1, OD450 nm): 73.7% | viability at 10 µM ([8]; A375, repeated experiment, read-out: The results of antibiotic drug inhibiting cancer cell lines (cell viability analysis), A375): 47.9% | viability at 10 µM ([8]; drug 10 μM, 72 hours, WST-1, OD450 nm, read-out: cell viability (survival rate), A375): 49.8% | viability at 10 µM [9]: 43.5% | viability at 10 µM ([10]; repeated experiment, read-out: The results of antibiotic drug inhibiting cancer cell lines (cell viability analysis), HeLa): 49.4% | viability at 10 µM ([10]; drug 10 μM, 72 hours, WST-1, OD450 nm, read-out: cell viability (survival rate), HeLa): 75.8% | viability at 10 µM [11]: 35.5% | viability at 10 µM ([12]; PC-3, repeated experiment, read-out: The results of antibiotic drug inhibiting cancer cell lines (cell viability analysis), PC-3): 52.1% | viability at 10 µM ([12]; drug 10 μM, 72 hours, WST-1, OD450 nm, read-out: cell viability (survival rate), PC3): 45.3% | viability at 10 µM (T24): 55.4% | viability at 10 µM ([13]; MCF-7, repeated experiment, read-out: The results of antibiotic drug inhibiting cancer cell lines (cell viability analysis), MCF-7): 48% | viability at 10 µM ([13]; drug 10 μM, 72 hours, WST-1, OD450 nm, read-out: cell viability (survival rate), MCF7): 63.6% | viability at 10 µM [14]: 60.4% | viability at 10 µM (BxPC-3): 42.6% | viability at 10 µM (AsPC-1): 32.2% | viability at 10 µM (NIH: OVCAR-3): 62.3% | viability at 10 µM (TOV-21G): 37.3% | viability at 10 µM [15]: 26.6% | viability at 10 µM (U-2OS): 38.9% | viability at 10 µM [16]: 18.1% | viability at 10 µM [17]: 71.3% | viability [18]: 51.6%
